≈ marks a conversion by molar mass, not a printed value. Read-outs that look alike come from different tables or passages of the source.
How the values were obtained:
Type in all cases: cell-based
[1] = test system: Streptococcus pneumoniae 1016; assay: MIC, microtiter broth dilution (NCCLS M100-S14), S. pneumoniae 1016 (susceptible)
Summary of the method: (§1)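 Broth dilution was run in microtiter trays and read per NCCLS M100-S14 to give MICs. Compounds came from 40 mg/ml DMSO stock solutions. The strain panel paired macrolide-susceptible parents with macrolide-resistant derivatives.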

[2] = test system: Haemophilus influenzae 1218; assay: MIC, microtiter broth dilution (NCCLS M100-S14), H. influenzae 1218 (susceptible)
Summary of the method: as §1

[3] = test system: Streptococcus pyogenes 1079; assay: MIC, microtiter broth dilution (NCCLS M100-S14), S. pyogenes 1079 (ermB)
Summary of the method: as §1

[4] = test system: Streptococcus pneumoniae 1175; settings: microtiter broth dilution
Summary of the method: as §1

[5] = test system: Streptococcus pneumoniae 1095; settings: microtiter broth dilution
Summary of the method: as §1

[6] = S. pneumoniae 1016 (susceptible)
[7] = H. influenzae 1218 (susceptible)

Molecule	MIC S. pneumo. 1016 ([1]; Streptococcus pneumoniae 1016)	MIC H. influenzae 1218 ([2]; Haemophilus influenzae 1218)	MIC S. pyogenes 1079 ([3]; Streptococcus pyogenes 1079)	MIC S. pneumo. 1175 ([4]; Streptococcus pneumoniae 1175)	MIC S. pneumo. 1095 ([5]; Streptococcus pneumoniae 1095)	MIC S. pneumo. 1016 [1, 6]	MIC H. influenzae 1218 [2, 7]	MIC S. pyogenes 1079 ([3]; S. pyogenes 1079 (ermB))	MIC S. pneumo. 1175 ([4]; S. pneumoniae 1175 (mefA))	MIC S. pneumo. 1095 ([5]; S. pneumoniae 1095 (ermB))
CC[C@H]1OC(=O)[C@H](C)C(=O)[C@H](C)[C@@H](O[C@@H]2O[C@H](C)C[C@H](N(C)C)[C@H]2O)[C@](C)(OC)C[C@@H](C)C(=O)[C@H](C)[C@H]2N(C3CN(C(C)c4ccnc5ccccc45)C3)C(=O)O[C@]12C (stereo partly shown) [Example 1.62, 3-descladinosyl-11,12-dideoxy-6-O-methyl-3-oxo-12,11-(oxycarbonyl-(1-(1-(quinolin-4-yl)-ethyl)-azetidin-3-yl)-imino)-erythromycin A]	<0.06 µg/mL	0.5 µg/mL (≈ 0.608 µM)	2 µg/mL (≈ 2.43 µM)	<0.06 µg/mL	<0.06 µg/mL	–	–	–	–	–
CCC1OC(=O)C(C)C(=O)C(C)C(OC2OC(C)CC(N(C)C)C2O)C(C)(OC)CC(C)C(=O)C(C)C2N(CC3(O)CN(S(=O)(=O)c4cccc5cccnc45)C3)C(=O)OC12C (stereo not shown) [7.06]	–	–	–	–	–	<0.06 µg/mL	0.5 µg/mL (≈ 0.562 µM)	>64.00 µg/mL	0.5 µg/mL (≈ 0.562 µM)	32 µg/mL (≈ 36 µM)
3-descladinosyl-11,12-dideoxy-6-O-methyl-3-oxo-12,11-(oxycarbonyl-(1-((isoquinolin-4-yl)-methyl)-azetidin-3-yl)-imino)-erythromycin A [Example 1.30]	<0.06 µg/mL	1 µg/mL	4 µg/mL	<0.06 µg/mL	<0.06 µg/mL	–	–	–	–	–
CCC1OC(=O)C(C)C(=O)C(C)C(OC2OC(C)CC(N(C)C)C2O)C(C)(OC)CC(C)C(=O)C(C)C2N(C3CN(S(=O)(=O)c4ccc(-c5nnn(C)n5)cc4)C3)C(=O)OC12C (stereo not shown) [Example 3.51, 3-descladinosyl-11,12-dideoxy-6-O-methyl-3-oxo-12,11-(oxycarbonyl-(1-(4-(2-methyl-2H-tetrazol-5-yl)benzenesulfonyl)-azetidin-3-yl)-imino)-erythromycin A]	<0.06 µg/mL	2 µg/mL (≈ 2.25 µM)	0.5 µg/mL (≈ 0.562 µM)	<0.06 µg/mL	<0.06 µg/mL	–	–	–	–	–
CCC1OC(=O)C(C)C(=O)C(C)C(OC2OC(C)CC(N(C)C)C2O)C(C)(OC)CC(C)C(=O)C(C)C2N(CC3CCN(Cc4cccc5nccnc45)CC3)C(=O)OC12C (stereo not shown) [15.01]	–	–	–	–	–	<0.06 µg/mL	32 µg/mL (≈ 37.6 µM)	>64.00 µg/mL	0.25 µg/mL (≈ 0.293 µM)	>64.00 µg/mL
CCC1OC(=O)C(C)C(=O)C(C)C(OC2OC(C)CC(N(C)C)C2O)C(C)(OC)CC(C)C(=O)C(C)C2N(CC3CCN(Cc4c[nH]c5ncccc45)C3)C(=O)OC12C (stereo not shown) [13.01]	–	–	–	–	–	<0.06 µg/mL	1 µg/mL (≈ 1.21 µM)	>64.00 µg/mL	1 µg/mL (≈ 1.21 µM)	0.25 µg/mL (≈ 0.303 µM)
CC[C@H]1OC(=O)[C@H](C)C(=O)[C@H](C)[C@@H](O[C@@H]2O[C@H](C)C[C@H](N(C)C)[C@H]2O)[C@](C)(OC)C[C@@H](C)C(=O)[C@H](C)[C@H]2N(CC3(C)CN(Cc4cccc5ncccc45)C3)C(=O)O[C@]12C [6.02]	<0.06 µg/mL	2 µg/mL (≈ 2.39 µM)	32 µg/mL (≈ 38.2 µM)	0.25 µg/mL (≈ 0.299 µM)	<0.06 µg/mL	–	–	–	–	–
CCC1OC(=O)C(C)C(=O)C(C)C(OC2OC(C)CC(N(C)C)C2O)C(C)(OC)CC(C)C(=O)C(C)C2N(CC3CCCN3C(=O)c3cnc4ccccc4c3)C(=O)OC12C (stereo not shown) [10.07]	–	–	–	–	–	<0.06 µg/mL	2 µg/mL (≈ 2.35 µM)	>64.00 µg/mL	0.25 µg/mL (≈ 0.294 µM)	<0.06 µg/mL
CCC1OC(=O)C(C)C(=O)C(C)C(OC2OC(C)CC(N(C)C)C2O)C(C)(OC)CC(C)C(=O)C(C)C2N(C3CN(S(=O)(=O)c4cccc(-n5cccn5)c4)C3)C(=O)OC12C (stereo not shown) [Example 3.58, 3-descladinosyl-11,12-dideoxy-6-O-methyl-3-oxo-12,11-(oxycarbonyl-(1-(3-(1H-pyrazol-1-yl)benzenesulfonyl)-azetidin-3-yl)-imino)-erythromycin A]	<0.06 µg/mL	1 µg/mL (≈ 1.14 µM)	4 µg/mL (≈ 4.58 µM)	<0.06 µg/mL	<0.06 µg/mL	–	–	–	–	–
CCC1OC(=O)C(C)(F)C(=O)C(C)C(OC2OC(C)CC(N(C)C)C2O)C(C)(OC)CC(C)C(=O)C(C)C2N(C3CN(Cc4ccnc5ncccc45)C3)C(=O)OC12C (stereo not shown) [Example 1.33, 3-descladinosyl-11,12-dideoxy-2-fluoro-6-O-methyl-3-oxo-12,11-(oxycarbonyl-(1-((1,8-naphthyridin-4-yl)-methyl)-azetidin-3-yl)-imino)-erythromycin A]	<0.06 µg/mL	0.25 µg/mL (≈ 0.302 µM)	0.25 µg/mL (≈ 0.302 µM)	<0.06 µg/mL	<0.06 µg/mL	–	–	–	–	–
CCC1OC(=O)C(C)(F)C(=O)C(C)C(OC2OC(C)CC(N(C)C)C2O)C(C)(OC)CC(C)C(=O)C(C)C2N(C3CN(S(=O)(=O)c4cccc5nccnc45)C3)C(=O)OC12C (stereo not shown) [Example 3.98, 3-descladinosyl-11,12-dideoxy-2-fluoro-6-O-methyl-3-oxo-12,11-(oxycarbonyl-(1-(quinoxaline-5-sulfonyl)-azetidin-3-yl)-imino)-erythromycin A]	<0.063 µg/mL	0.25 µg/mL (≈ 0.285 µM)	0.25 µg/mL (≈ 0.285 µM)	<0.063 µg/mL	<0.063 µg/mL	–	–	–	–	–
CCC1OC(=O)C(C)C(=O)C(C)C(OC2OC(C)CC(N(C)C)C2O)C(C)(OC)CC(C)C(=O)C(C)C2N(CC3CN(Cc4n[nH]c5ccccc45)C3)C(=O)OC12C (stereo not shown) [4.22]	<0.06 µg/mL	0.12 µg/mL (≈ 0.148 µM)	32 µg/mL (≈ 39.4 µM)	0.25 µg/mL (≈ 0.308 µM)	2 µg/mL (≈ 2.46 µM)	–	–	–	–	–
CCC1OC(=O)C(C)C(=O)C(C)C(OC2OC(C)CC(N(C)C)C2O)C(C)(OC)CC(C)C(=O)C(C)C2N(C3CN(Cc4ccnc5c(OC)cccc45)C3)C(=O)OC12C (stereo not shown) [Example 1.84, 3-descladinosyl-11,12-dideoxy-6-O-methyl-3-oxo-12,11-(oxycarbonyl-(1-(8-methoxyquinoline-4-methyl)-azetidin-3-yl)-imino)erythromycin A]	<0.063 µg/mL	2 µg/mL (≈ 2.38 µM)	8 µg/mL (≈ 9.53 µM)	<0.063 µg/mL	<0.063 µg/mL	–	–	–	–	–
CCOc1ccc(S(=O)(=O)N2CC(N3C(=O)OC4(C)C(CC)OC(=O)C(C)C(=O)C(C)C(OC5OC(C)CC(N(C)C)C5O)C(C)(OC)CC(C)C(=O)C(C)C34)C2)cc1C#N (stereo not shown) [Example 3.99, 3-descladinosyl-11,12-dideoxy-6-O-methyl-3-oxo-12,11-(oxycarbonyl-(1-(3-cyano-4-ethoxybenzene-1-sulfonyl)-azetidin-3-yl)-imino)-erythromycin A]	<0.063 µg/mL	1.41 µg/mL (≈ 1.61 µM)	0.25 µg/mL (≈ 0.285 µM)	<0.063 µg/mL	<0.063 µg/mL	–	–	–	–	–
CCC1OC(=O)C(C)C(=O)C(C)C(OC2OC(C)CC(N(C)C)C2O)C(C)(OC)CC(C)C(=O)C(C)C2N(C3CN(Cc4cnn(-c5cccc(F)c5)c4)C3)C(=O)OC12C (stereo not shown) [Example 1.41, (1-[3-fluorophenyl]-pyrazol-4-yl)methyl]	<0.06 µg/mL	0.12 µg/mL (≈ 0.143 µM)	>64.00 µg/mL	<0.06 µg/mL	<0.06 µg/mL	–	–	–	–	–
CCC1OC(=O)C(C)C(=O)C(C)C(OC2OC(C)CC(N(C)C)C2O)C(C)(OC)CC(C)C(=O)C(C)C2N(CC3CCCN3C(=O)c3cccc4[nH]cnc34)C(=O)OC12C (stereo not shown) [10.52]	–	–	–	–	–	<0.06 µg/mL	0.25 µg/mL (≈ 0.298 µM)	64 µg/mL (≈ 76.2 µM)	<0.06 µg/mL	<0.06 µg/mL
CCC1OC(=O)C(C)C(=O)C(C)C(OC2OC(C)CC(N(C)C)C2O)C(C)(OC)CC(C)C(=O)C(C)C2N(C3CN(Cc4c(Cl)cnc5[nH]cnc45)C3)C(=O)OC12C (stereo not shown) [Example 1.100, 3-descladinosyl-11,12-dideoxy-6-O-methyl-3-oxo-12,11-(oxycarbonyl-(1-(6-chloro-3H-imidazo[4,5-b]pyridine-7-methyl)-azetidin-3-yl)-imino)-erythromycin A]	<0.063 µg/mL	0.5 µg/mL (≈ 0.6 µM)	0.125 µg/mL (≈ 0.15 µM)	<0.063 µg/mL	<0.063 µg/mL	–	–	–	–	–

— patent US7462600B2, “Macrolides” (Pfizer Inc, priority 2004, dated 2008)
